Experimental findings from a melting point compilation (Tetko et al.; mined from patent text by program, amines drawn as free bases though some values may be those of a salt) are described below.

Usually melting point stands for the temperature, or range, at which the solid turns liquid. `Cc1cc(NS(=O)(=O)c2n[nH]c(NC=O)n2)ccc1Br` returned a melting point of 282 to 284 °C.
`CCCCCCCCCCCC(=O)NNC(=O)c1ccccc1O` displayed a melting point of 158 °C.
`CN(Cc1cc2c(=O)c(C(=O)NCc3ccc(Cl)cc3)cn(C)c2s1)CC(O)c1ccccc1` (centres undefined): the melting point was 162 to 164 °C.
To `O=c1[nH]c2ccccc2n1CCCN1CCN(C(c2ccc(Cl)cc2)c2cccnc2)CC1` (centres undefined) belongs 183 °C.
With `C#Cc1ccc(C(O)C2C(c3ccccc3)CC(=O)N2C)s1` (centres undefined) the figure was 187 °C; with `O=C1c2ccccc2C(=O)N1CCc1cccc(F)c1`, 122 to 125 °C.
In the case of `COc1cccc([C@H]2O[C@H](CC(=O)Nc3ccc(CC(=O)O)cc3)C(=O)N(CC(C)(C)CO)c3ccc(Cl)cc32)c1OC`, the melting point was in the range of 142 to 144 °C.
Compound `CC(C)Cn1c(CNC(=O)OC(C)(C)C)c(-c2ccccc2)c2cc(-c3nc(C(=O)O)cs3)ccc2c1=O` gave a melting point of 213 to 214 °C.
To `C/C(=N\O)[C@H]1CC[C@H]2[C@@H]3CCC4=CC(=O)CC[C@]4(C)[C@H]3CC[C@]12C` belongs 220 to 221 °C; to `O=Cc1cc(C(=O)CCl)c[nH]1`, 178 to 179 °C; to `Cc1cccc2c1NC(=O)C2(c1ccc(O)cc1)c1ccc(O)cc1`, 272 to 274 °C.
`c1csc(-c2noc(COc3ccc(CCCCn4ccnc4)cc3)n2)c1` yielded a melting point of 94 to 95 °C.
With `O=C(Nc1ccc(Oc2ncnc3cc4c(cc23)OCCOCCOCCO4)c(F)c1)c1c[nH]cc(-c2ccc(F)cc2)c1=O` the figure was 188 to 190 °C; with `CCc1c(OC)nc2nc(C(=N)NO)cn2c1C`, 249 to 250 °C; with `Cc1cc2cc(CN3CCCC3)cnc2cc1NC(=O)c1ccc(-c2ccc(F)cc2)c(F)c1`, 163 to 166 °C.
To `COc1ccc(C(C)C)cc1-c1cc(-c2nnnn2C2CCN(C(=O)OC(C)(C)C)C2)c(O)cc1O` (centres undefined) belongs 100 to 104 °C.
To `COc1cc(C(=O)NS(=O)(=O)c2ccccc2C)ccc1Cc1cn(C)c2ccc(CCNC(=O)N(C)C)cc12` belongs 124 to 131 °C.
Take `O=c1ccn(CC(O)CO)c(C(OC2CCCCO2)c2ccccc2)c1OCc1ccccc1` (centres undefined): the melting point fell in the range of 190 to 206 °C.
To `CNS(=O)(=O)c1cc(C(=O)O)cc(N)c1Oc1ccccc1` belongs 283 °C; to `O=S1(=O)CC(c2ccc(F)cc2)CN1` (centres undefined), 155 °C; to `O=C(NCCN1CCOCC1)Nc1nc2ccc(OCc3c(F)cccc3F)cc2s1`, 219 °C.
With `N#Cc1cnc(N[C@@H]2CCCc3ccccc32)nc1N` the figure was 168 °C.
Take `Cc1cc2ccncc2c(=O)c2ccccc12`: the melting point was in the range of 112 to 116 °C.
`CCCc1c(OCCOCCOc2ccc3ccc(OCC(=O)OC)cc3c2C(C)=O)ccc(C(C)=O)c1O` returned a melting point of 89 to 90 °C.
Take `COc1cc(CCc2ccc(O)c(O)c2)cc(OC)c1OC`: the melting point is 113 to 115 °C.
With `Cc1cc(C)c2c(c1C)OCC2c1ccc(C2OCCO2)cc1` (centres undefined) the figure was 107 to 108 °C.
With `NC(=O)C1CN(Cc2ccccc2)CCN1CCCC(c1ccc(F)cc1)c1ccc(F)cc1` (centres undefined) the figure was 79.2 °C; with `COc1ccc(-c2cc3cc(F)c(F)cc3[nH]2)cc1NC(=S)N[C@@H](COC(C)(C)C)C(=O)OC(C)(C)C`, 111 to 114 °C.
With `COC(=O)CS(=O)(=O)Nc1nc(-c2ncccc2C)cc2cccnc12` the figure was 147 to 148 °C; with `CC(C)(C)c1cc(OCc2cccc(C#N)c2)cc(C(C)(C)C)c1O`, 78 to 81 °C; with `Cc1c(C)c2c(c(C)c1NC(=O)c1ccc(F)cc1)C(c1ccc(C(C)C)cc1)C(C)(C)O2` (single isomer, unassigned; (+)), 251 to 253 °C.
Compound `CS(=O)(=O)c1ccc(-c2c(-c3ccccc3)nc3sccn23)cc1` came in with a melting point of 190 to 192 °C.
To `CN1CCN(c2ccc(Nc3ncc4c(n3)S/C(=C/c3ccc(C#N)cc3)C(=O)N4)cc2)CC1` belongs 274 to 276 °C; to `CC(C)(C)OC(=O)NCC(Cl)c1ccccc1` (centres undefined), 57 to 59 °C.
In the case of `COc1ncncc1C1c2ccccc2OCOc2cc(F)ccc21` (centres undefined), the melting point is 144 to 148 °C.
To `CCOC(=O)NC1=NN(c2cccc(Cl)c2)C(=O)C1` belongs 189 °C; to `CCCCCCc1c(C(F)(F)F)noc1NS(=O)(=O)c1ccccc1`, 128 to 129 °C.
With `C=Cc1c(NC(=O)c2cn(C)nc2C(F)(F)F)cccc1C(C)(C)C` the figure was 118 to 119 °C; with `O=c1cc(-c2ccccc2)nc2ccn(-c3ccccc3)n12`, 194 to 200 °C.
In the case of `CCOc1ccc(NCc2cc(OC)c(OC)c(OC)c2)cc1`, the melting point fell in the range of 76 to 78 °C.
With `COc1cc(OC)nc(OC2C(=O)OCC2(C)C)n1` (centres undefined) the figure was 139 to 142 °C; with `Cc1c(Oc2ccc(C(=O)NC(C)C)cc2)c2cc(F)ccc2n1CC(=O)O`, 218 to 219 °C; with `CCOC(=O)N1CCC2(CC1)C(=O)OC(=O)N2c1ccccc1`, 211 °C.
Take `CC(C)(C)C(=O)C(O)NC(=O)c1ccc(Cl)cc1` (centres undefined): the melting point is 130 °C.
Regarding `Cc1cc2ccccc2c(Cl)c1C`, the melting point turned out to be 55 °C.
With `CC(=O)Oc1cc(C(=O)O)cc([N+](=O)[O-])c1OC(C)=O` the figure was 126 to 127 °C.
To `O=C(NCCCn1cncn1)c1ccc([N+](=O)[O-])o1` belongs 176 to 177 °C.
With `O=C(NCCC1CCCCC1)c1cc(-c2ncc(Cl)cc2C(=O)O)ccc1Cl` the figure was 208 to 211 °C; with `Cc1cc(CSCCNC(=C[N+](=O)[O-])NCCc2cccc(O)c2)sc1CN(C)C`, 114 to 115 °C; with `CC(C)(C)OC(=O)N1CCN(c2ccc(Br)cn2)CC1`, 88 to 90 °C.
As to `COc1ccc(S(=O)(=O)Nc2cccnc2/C=C/c2ccc(O)cc2)cc1`, the melting point was in the range of 217 to 219 °C.
With `Cc1cc(-c2ccc(C(F)(F)F)cc2)nc(-c2ccnc(-c3cccc(S(N)(=O)=O)c3)n2)c1` the figure was more than 250 °C; with `CCN(CC)C(=O)n1ccc(S(=O)(=O)c2ccc(Br)cc2C(F)(F)F)n1`, 62 to 65 °C.
With `Cc1ccc(CC2CCN(C(=O)C(=O)Nc3ccc4c(c3)CC(=O)N4)CC2)cc1` the figure was 235 to 237 °C.
With `CCCOc1ccc(S(=O)(=O)N2CCN(CC)CC2)cc1-c1nc2cc(Cl)c([N+](=O)[O-])cc2c(=O)[nH]1` the figure was 239 to 241 °C.
`CC(C)(C)OC(=O)Nc1ccc(C#Cc2nccs2)cc1NC(=O)CC(=O)c1cccc(C#N)c1` registered a melting point of 131 °C.
With `Cc1cnn(-c2ccc(C(=O)N3Cc4cccn4Cc4ccccc43)c(Cl)n2)c1` the figure was 155 to 156 °C; with `O=C(O)C1=Cc2cc(Cl)c(OCC(F)(F)F)cc2OC1C(F)(F)F` (centres undefined), 174 to 176 °C.
With `C#CCN1CC[C@H](O)C1=O` the figure was 89 to 90 °C; with `Fc1ccc(-c2ncncc2CCN2CCC(c3csc4cc(F)ccc34)CC2)cc1`, 123 to 124 °C; with `O=C(Nc1ccc(C(=O)N2Cc3ccccc3Sc3ccccc32)cc1)c1ccccc1Cl`, 116 to 119 °C.
With `COc1c(N2CCC(n3cc(C)nn3)C2)c(F)c(N)c2c(=O)c(C(=O)O)cn(C3CC3)c12` (centres undefined) the figure was 256 °C.
Consider `C=CC[C@@](O)(C(=O)O)c1ccccc1`, for which the melting point is 132 °C.
`O=[N+]([O-])c1ccc2c(c1)CCN(Cc1ncn[nH]1)C2` registered a melting point of 163 to 166 °C.
With `COc1cc(-c2ccccc2Cl)c(Cl)cc1C(=O)N1Cc2cccn2Cc2ccccc21` the figure was 209 to 211 °C.
To `CN1CCC(C2(O)c3ccccc3COc3cc(Cl)ccc32)CC1` (centres undefined) belongs 199 to 200 °C; to `CC(C)(O/N=C(\C(=O)Sc1nc2ccccc2s1)c1csc(N)n1)C(=O)OC(c1ccccc1)c1ccccc1`, 110 °C.
Take `CCCCS(=O)(=O)NC1Cc2ccccc2C1`: the melting point was 60 to 62 °C.
To `CC(C)C(=C(c1ccccc1)c1ccccc1)P(C1CCCCC1)C1CCCCC1` belongs 162 to 163 °C; to `CCOC(=O)N1C(NC(C)C)=NS(=O)(=O)c2c1sc(C)c2C#N`, 116 to 119 °C.
With `CC(C)=CCN1Cc2c(Br)ccc3[nH]c(=S)n(c23)C[C@@H]1C` the figure was 161 °C; with `COC(=O)C1(O)Cc2cc(Cl)ccc2C1=O` (single isomer, unassigned; (+)), 163 to 165 °C.
Compound `COC(=O)CCCc1ccc(S(=O)(=O)Nc2ccc(Cl)cc2)cn1` had a melting point of 80 to 81 °C.
To `Cc1cc2[nH]c(=O)n(C3CCN(CCCN(c4ccc(F)cc4)c4ccc(F)cc4)CC3)c2cc1C` belongs 219 to 220 °C.
To `Cc1ccc(C2=NNC(=O)Cc3cc4c(cc32)OCO4)cc1` belongs 222 to 224 °C.
With `CC1(c2ccc([N+](=O)[O-])cc2)C(=O)Nc2cc(Cl)ccc2C1=O` (centres undefined) the figure was 209 to 210 °C; with `Cc1nc(C(C)O)c2n1-c1ccc(Cl)cc1C(c1ccccc1Cl)=NC2` (centres undefined), 197 to 199 °C.
In turn, `Cc1nc2scc(-c3ccc(F)cc3)n2c(=O)c1CCN1CCC(c2noc3cc(F)ccc23)CC1` gave a melting point of 119 to 122 °C.
Take `CC(NC(=O)Cc1cc(F)cc(F)c1)C(=O)NC1C(=O)NC(c2cccnc2)c2ccccc21` (centres undefined): the melting point is 100 to 120 °C.
With `CC(=O)NC(Cc1ccccc1)C(=O)Nc1c(C)cccc1C` (centres undefined) the figure was 217 to 218 °C; with `COc1cc(C(=O)CCC(=O)c2cc(OCc3ccccc3)c(O)c(S(=O)(=O)CCO)c2)cc(OC)c1OC`, 129 to 130 °C.
With `CC(Cc1ccccc1)(C(=NC#N)NCc1ccco1)c1ccccn1` (centres undefined) the figure was 152 to 154 °C.
`N#Cc1c(Cl)nc(OCC(F)(F)F)nc1N1CCc2ccccc2CC1` displayed a melting point of 165 to 167 °C.
To `O=C(O)c1ccc(Cl)c2c1NCCS2` belongs 220 °C.
